Like-named read-outs stand apart in the source and are kept apart here.
Columns and labels:
[1] = Phase 1 part A: PK after single and multiple once-daily oral doses; type: in vivo, human; conditions: for AUC / AUC(0-inf) / AUC(0-t) / Cmax / half-life / Tmax: human, plasma, po; for AUC / AUC(0-inf) / AUC(0-t) / Cmax / half-life: mean (CV%); for half-life: read-out: t1/2 (converted); for Tmax: median (range), read-out: Tmax
Protocol: The study was conducted sequentially in 2 parts. […] Eligible participants were admitted to the clinical unit for single‐dose evaluation from days −2 to 2 and from days 29 to 31 for steady‐state PK and safety evaluation. Participants self‐administered daily doses after an overnight fast of at least 10 hours on days 4 to 30, with outpatient visits on days 3, 4, 7, 14, 21, 32, 33, and 61 (Figure S1).
For part A, blood samples for PK assessments were collected following administration on days 1 and 30 at 0 (predose), 0.5, 0.75, 1, 1.5, 2, 3, 4, 8, 12, 24, 48, and 72 hours after dosing. In addition, predose PK samples were collected on days 4, 7, 14, and 21. PK parameters following single and multiple once‐daily dosing were evaluated using noncompartmental analysis, including the AUC over a dosing interval (AUCτ), AUC from time 0 to the last time with quantifiable concentration (AUClast), AUC from time 0 to infinite time (AUC∞), maximum plasma concentration (Cmax), minimum plasma concentration, time to maximum plasma concentration (tmax), terminal elimination half‐life (t1/2), apparent total drug clearance following oral administration (CL/F), and predose concentration.
All statistical analyses were performed using SAS version 9.3 or higher (SAS Institute Inc., Cary, North Carolina). Analysis of PK data was performed using WinNonlin Professional Software version 8.0 or higher (Certara, LP, Princeton, New Jersey). […] Categorical data were summarized by race and treatment group in terms of number of participants with data at relevant time points, frequency counts, and percentages. PK concentrations below the limit of quantification (BLQ) at time 0 on days 1 and 30 were considered 0. Postdose BLQ data were considered missing for PK parameter calculation. For mean concentrations and graphic presentation, all BLQ data were imputed as 0.

[2] = system: breast cancer resistance protein; set-up: method as in unpublished data; conditions: ref unpublished data; cited from earlier work
[3] = 10 mg, Day 30, 10 mg once daily, Japanese
[4] = 10 mg, Day 30, 10 mg once daily, White
[5] = 25 mg, Day 30, 25 mg once daily, Japanese
[6] = 25 mg, Day 30, 25 mg once daily, White
[7] = 40 mg, Day 30, 40 mg once daily, Japanese
[8] = 40 mg, Day 30, 40 mg once daily, White

`Cn1c(=O)oc2ccc(-c3ccc(C[C@@H](C#N)NC(=O)[C@@H]4CNCCCO4)cc3)cc21` [Brensocatib] showed an AUC [1, 3] of 1050 ng·h/mL, an AUC(0-inf) [1, 3] of 1980 ng·h/mL and an AUC(0-t) [1, 3] of 1730 ng·h/mL. The Cmax [1, 3] was 80.5 ng/mL, the half-life [1, 3] was 22.5 h and the Tmax [1, 3] was 1.26 h. For the same compound, the AUC [1, 4] was 1180 ng·h/mL, the AUC(0-inf) [1, 4] was 2540 ng·h/mL and the AUC(0-t) [1, 4] was 2100 ng·h/mL. The Cmax [1, 4] was 89.5 ng/mL, the half-life [1, 4] was 28.1 h and the Tmax [1, 4] was 1.02 h. For the same compound, the AUC ([1]; 25 mg, Day 1, 25 mg, Japanese) was 2010 ng·h/mL, the AUC(0-inf) ([1]; 25 mg, Day 1, 25 mg, Japanese) was 3390 ng·h/mL and the AUC(0-t) ([1]; 25 mg, Day 1, 25 mg, Japanese) was 3040 ng·h/mL. For the same compound, the Cmax ([1]; 25 mg, Day 1, 25 mg, Japanese) was 209 ng/mL, the half-life ([1]; 25 mg, Day 1, 25 mg, Japanese) was 21.7 h and the Tmax ([1]; 25 mg, Day 1, 25 mg, Japanese) was 1.5 h. It also gave an AUC ([1]; 25 mg, Day 1, 25 mg, White) of 1720 ng·h/mL, an AUC(0-inf) ([1]; 25 mg, Day 1, 25 mg, White) of 3200 ng·h/mL and an AUC(0-t) ([1]; 25 mg, Day 1, 25 mg, White) of 2810 ng·h/mL. It also gave a Cmax ([1]; 25 mg, Day 1, 25 mg, White) of 161 ng/mL, a half-life ([1]; 25 mg, Day 1, 25 mg, White) of 24.5 h and a Tmax ([1]; 25 mg, Day 1, 25 mg, White) of 1.35 h. The AUC [1, 5] was 4170 ng·h/mL, the AUC(0-inf) [1, 5] was 7890 ng·h/mL and the AUC(0-t) [1, 5] was 6890 ng·h/mL. It also gave a Cmax [1, 5] of 301 ng/mL, a half-life [1, 5] of 23.3 h and a Tmax [1, 5] of 1.75 h. For the same compound, the AUC [1, 6] was 3870 ng·h/mL, the AUC(0-inf) [1, 6] was 8160 ng·h/mL and the AUC(0-t) [1, 6] was 6720 ng·h/mL. For the same compound, the Cmax [1, 6] was 265 ng/mL, the half-life [1, 6] was 28.6 h and the Tmax [1, 6] was 1.02 h. It also gave an AUC ([1]; 40 mg, Day 1, 40 mg, Japanese) of 2660 ng·h/mL, an AUC(0-inf) ([1]; 40 mg, Day 1, 40 mg, Japanese) of 4580 ng·h/mL and an AUC(0-t) ([1]; 40 mg, Day 1, 40 mg, Japanese) of 4040 ng·h/mL. The Cmax ([1]; 40 mg, Day 1, 40 mg, Japanese) was 245 ng/mL, the half-life ([1]; 40 mg, Day 1, 40 mg, Japanese) was 23.2 h and the Tmax ([1]; 40 mg, Day 1, 40 mg, Japanese) was 1.5 h. It also gave an AUC ([1]; 40 mg, Day 1, 40 mg, White) of 3420 ng·h/mL, an AUC(0-inf) ([1]; 40 mg, Day 1, 40 mg, White) of 5930 ng·h/mL and an AUC(0-t) ([1]; 40 mg, Day 1, 40 mg, White) of 5300 ng·h/mL. For the same compound, the Cmax ([1]; 40 mg, Day 1, 40 mg, White) was 328 ng/mL, the half-life ([1]; 40 mg, Day 1, 40 mg, White) was 22.1 h and the Tmax ([1]; 40 mg, Day 1, 40 mg, White) was 1.27 h. The AUC [1, 7] was 4010 ng·h/mL, the AUC(0-inf) [1, 7] was 7110 ng·h/mL and the AUC(0-t) [1, 7] was 6400 ng·h/mL. It also gave a Cmax [1, 7] of 334 ng/mL, a half-life [1, 7] of 21.9 h and a Tmax [1, 7] of 1.03 h. The AUC [1, 8] was 6470 ng·h/mL, the AUC(0-inf) [1, 8] was 12200 ng·h/mL and the AUC(0-t) [1, 8] was 10600 ng·h/mL. For the same compound, the Cmax [1, 8] was 467 ng/mL, the half-life [1, 8] was 23.6 h and the Tmax [1, 8] was 1.49 h. The “accumulation in maximum plasma concentration and AUC at steady state” value ([1]; once-daily dosing) was “≈ 2 fold”, the “Dose‐normalized Cmax lower in Japanese than in White participants” value ([1]; pooled dose groups) was 19.1% and the “dose‐normalized AUCs lower in Japanese than in White participants” value ([1]; pooled dose groups) was “≈ 25.6%”. For the same compound, the substrate status [2] was “substrate”.

From PMC9322451 (Clinical Pharmacology in Drug Development, 2022)
